Reference: patent EP3502093A1, “ZWITTERIONIC PILLARARENE DERIVATIVE” (Freie Universität Berlin, priority 2017, dated 2019)

Key:
E. coli biofilm [1] = experiment: treatment of pre-fabricated biofilms of different stages for 24 h, LIVE/DEAD staining; assay type: cell-based; conditions: 200 nM, treated 24 h
Experimental: As depicted in Figure 2, E. coli biofilm in different stages - namely, in colony formation stage (1 day growth ["cultivated 1 + 1 days"]) and in maturation stages (3 days growth ["cultivated 1 + 3 days"] or 5 days growth ["cultivated 1 + 5 days"], respectively), were pre-fabricated according to literature^16 and then treated with a dose of 200 nM ZW-PA nanoparticles, 200 nM ampicillin or PBS for another 24 h. Afterwards, the resulting biofilms on the 2nd day, the 4th day and the 6th day were observed. A LIVE/DEAD staining of the E. coli cells was applied. By this staining, living cells are stained green, while dead cells are stained red. […] Specifically, the biofilm height increased from 8 µm on the 2nd day (1st + 1 day) to 25 µm on the 6th day (1st + 5 days). Only green (living) cells could be observed. The scale bars in all plots of Figure 2 represent 50 µm.

E. coli biofilm [2] = experiment: prolonged incubation (24 h, 72 h, 120 h) of 1-day pre-fabricated biofilm, regrowth and resistance; assay type: cell-based; conditions: 1-day biofilm, 200 nM
Experimental: Biofilms are considered to be highly resistant to antibacterial agents due to restricted penetration of antibacterial agents into biofilms, slow growth owing to nutrient limitation, expression of genes involved in the general stress response, and emergence of a biofilm-specific phenotype. Thus, it is important to investigate the emergence of resistances against a new antibacterial agent used for combating biofilms. Therefore, ZW-PA nanoparticles in a concentration of 200 nM were applied to a biofilm pre-fabricated for 1 day. Subsequently, the biofilm was incubated with ZW-PA nanoparticles and investigated after 1 day incubation (24 h, cultivated 1 + 1 days), after 3 days incubation (72 h, cultivated 1 + 3 days), and after 5 days incubation (120 h, cultivated 1 + 5 days). PBS and 200 nM ampicillin were used as controls. The scale bars in all plots of Figure 3 represent 50 µm.

[3] = biofilm grown 1 day (1 + 1 days)
[4] = biofilm grown 5 days (1 + 5 days)

Compound: CC1(C)S[C@@H]2[C@H](NC(=O)[C@H](N)c3ccccc3)C(=O)N2[C@H]1C(=O)O [ampicillin]
- LIVE/DEAD staining, killing of cells in biofilm (E. coli biofilm [1]; [3]): less than the half of the cells, were stained red
- biofilm height (E. coli biofilm [1]; [3]): 5 µm
- LIVE/DEAD staining, killing of cells in biofilm (E. coli biofilm [1]; biofilm grown 3 days (1 + 3 days)): most of the cells were still alive
- LIVE/DEAD staining, killing of cells in biofilm (E. coli biofilm [1]; [4]): effective only against the cells on the surface layer of the biofilm
- biofilm height (E. coli biofilm [1]; [4]): 24 µm
- LIVE/DEAD staining, killing of cells in biofilm (E. coli biofilm [2]; 24 h incubation (1 + 1 days)): a part of the cells could be killed
- LIVE/DEAD staining, living versus dead cells (E. coli biofilm [2]; 72 h incubation (1 + 3 days)): more green than red cells
- LIVE/DEAD staining, living versus dead cells (E. coli biofilm [2]; 120 h incubation (1 + 5 days)): more red than green cells
- cell density and reformation of the biofilm on further incubation (E. coli biofilm [2]; further incubated to 72 h and 120 h): the biofilm could gradually reform
